Test results: patent US20240123079A1 (Seagen Inc., priority 2021, published 2024)

How the values were obtained:
[1] = In vivo cytokine assay, plasma of Renca tumor-bearing mice; set-up: species or system mouse; conditions: for IL1β in plasma / IL12p70 in plasma / IL-6 in plasma / IL-10 in plasma / IP10 in plasma / MCP-1 in plasma / IFNγ in plasma: Renca tumor-bearing mice, 1.48 mg/kg
Procedure: Cytokines were measured in mouse plasma harvested at 3, 6, 24, or 48 hours after treatment with compounds or ADCs using a Milliplex MAP mouse cytokine/chemokine magnetic bead panel assay kit (MCYTOMAG-70k custom 11-plex kit: MCP1, MIP1α, MIP1β, TNFα, IFNγ, IL-10, IL-12p70, IL-6, IL-1β, IP10, RANTES) and analyzed using a Luminex™ MAGPIX™ Instrument System. Values that were outside of the standard curve range (<3.2 or […]) were excluded from calculation of the mean values.

DELBVR = experiment: Cancer cell direct cytotoxicity assay (CellTiter-Glo), DELBVR; type: cell-based; conditions: Homo sapiens, 96 h, free compound, read-out: Compound X50
Procedure: Bystander activity of ADCs was evaluated using Renca cancer cells and THP1-Dual™ cells (InvivoGen) which contain an IRF-Lucia luciferase reporter. Cells were cultured in RPMI-1640 (Gibco) with 10% heat-inactivated fetal bovine serum, Pen-Strep (100 U/ml-100 μg/ml, Gibco), HEPES (10 mM, Gibco), sodium pyruvate (1 mM, Gibco), MEM non-essential amino acids (1×, Gibco), GlutaMAX (1×, Gibco), and beta-mercaptoethanol (55 μM, Gibco). Renca cells were plated in a 96-well flat bottom tissue culture-treated clear polystyrene plate (Corning Costar #3596) at 50,000 cells per well in 100 μL. On the day following the initial plating, 50,000 THP1-Dual™ cells were added to each well with the indicated concentration of ADC in a total volume of 200 μL. Supernatant was harvested at 48 hours post addition of the THP1-Dual™ cells. To measure Lucia reporter signal, 10 μL of supernatant was combined with 40 μL of QUANTI-Luc™ Luminescence assay reagent (Invivogen PN: rep-qlc1) in a 96-well clear flat bottom tissue culture-treated black polystyrene plate (Corning Costar PN: 3603) and read on a Perkin Elmer Envision plate reader. In some experiments, HEK 293T cells engineered to express a murine protein typically expressed by immune cells (target antigen C— an immune cell antigen) were plated as above instead of Renca tumor cells. Cancer Cell Direct Cytotoxicity Assay
Cancer cells were counted and plated in 40 μL complete growth media in 384-well, white-walled tissue culture treated plates (Corning). Cell plates were incubated at 37° C. and with 5% CO2 overnight to allow the cells to equilibrate. Stock solutions containing ADCs or free drugs were serially diluted in RPMI-1640+20% fetal bovine serum (FBS). 10 μL of each concentration were then added to each cell plate in duplicate. Cells were then incubated at 37° C. and with 5% CO2 for 96 hours, upon which, the cell plates were removed from the incubator and allowed to cool to room temperature for 30 minutes prior to analysis. […] The luminescence of the samples was measured using an EnVision Multimode plate reader (Perkin Elmer, Waltham, MA). […]

CCn1nc(C)cc1C(=O)Nc1nc2cc(C(N)=O)cc(O)c2n1C/C=C/Cn1c(NC(=O)c2cc(C)nn2CC)nc2cc(C(N)=O)cc(OC)c21 [Compound 1, (E)-1-(4-(5-carbamoyl-2-(1-ethyl-3-methyl-1H-pyrazole-5-carboxamido)-7-hydroxy-1H-benzo[d]imidazol-1-yl)but-2-en-1-yl)-2-(1-ethyl-3-methyl-1H-pyrazole-5-carboxamido)-7-methoxy-1H-benzo[d]imidazole-5-carboxamide]
IL1β in plasma ([1]; 3 h): 0.7 pg/mL | IL12p70 in plasma ([1]; 3 h): 174 pg/mL | IL-6 in plasma ([1]; 3 h): 95.7 pg/mL | IL-10 in plasma ([1]; 3 h): 48.8 pg/mL | IP10 in plasma ([1]; 3 h): 703 pg/mL | MCP-1 in plasma ([1]; 3 h): 168 pg/mL | IFNγ in plasma ([1]; 6 h): 0.2 pg/mL | IL1β in plasma ([1]; 6 h): 1.5 pg/mL | IL12p70 in plasma ([1]; 6 h): < 3.2 pg/mL | IL-6 in plasma ([1]; 6 h): 6.8 pg/mL | IL-10 in plasma ([1]; 6 h): 0.8 pg/mL | IP10 in plasma ([1]; 6 h): 3390 pg/mL | MCP-1 in plasma ([1]; 6 h): 796 pg/mL | IFNγ in plasma ([1]; 24 h): < 3.2 pg/mL | IL1β in plasma ([1]; 24 h): 0.8 pg/mL | IL12p70 in plasma ([1]; 24 h): 140 pg/mL | IL-6 in plasma ([1]; 24 h): 13.5 pg/mL | IL-10 in plasma ([1]; 24 h): 34.6 pg/mL | IP10 in plasma ([1]; 24 h): 551 pg/mL | systemic pro-inflammatory cytokine (IL-6 and TNF) production ([1]; plasma of tumor-bearing mice): induced very little pro-inflammatory cytokine (IL-6 and TNF) production | IC50 (DELBVR): 16 nM
